Where “and” joins values, the source holds several entries; their conditions need not be identical. Identical values can stand only once. Toxic doses and inconclusive results are not listed. Cut-off read from the data, not from the text of the source: active = T/C of 150% or more; inactive = T/C below 125%.
System: L1210 leukemia ip in BDF1 mice, survival T/C
Experiment: NCI In Vivo Anticancer Drug Screen. Data for tumor model L1210 Leukemia (intraperitoneal) in B6D2F1 (BDF1) mice
Settings: endpoint: mean survival time, higher = longer survival
Outline: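 Value reflects the ratio of survival in compound-treated mice to survival in vehicle-treated controls, with both groups carrying the same transplanted tumor.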

[1] = dose: 100.0 mg/kg/injection, schedule: Q01DX001 (ip), vehicle: carboxymethylcellulose (CMC)
[2] = dose: 200.0 mg/kg/injection, schedule: Q01DX001 (ip), vehicle: carboxymethylcellulose (CMC)
[3] = dose: 400.0 mg/kg/injection, schedule: Q01DX001 (ip), vehicle: carboxymethylcellulose (CMC)
[4] = dose: 100.0 mg/kg/injection, schedule: Q01DX009 (ip), vehicle: saline with Tween-80
[5] = dose: 200.0 mg/kg/injection, schedule: Q01DX009 (ip), vehicle: saline with Tween-80
[6] = dose: 100.0 mg/kg/injection, schedule: Q04DX002 (ip), vehicle: Klucel (hydroxypropylcellulose) (HPC)
[7] = dose: 100.0 mg/kg/injection, schedule: Q04DX003 (ip), vehicle: saline with Tween-80
[8] = dose: 200.0 mg/kg/injection, schedule: Q04DX003 (ip), vehicle: saline with Tween-80
[9] = dose: 400.0 mg/kg/injection, schedule: Q04DX003 (ip), vehicle: saline with Tween-80
[10] = dose: 12.5 mg/kg/injection, schedule: Q01DX009 (ip), vehicle: Klucel (hydroxypropylcellulose) (HPC)
[11] = dose: 25.0 mg/kg/injection, schedule: Q01DX009 (ip), vehicle: Klucel (hydroxypropylcellulose) (HPC)
[12] = dose: 50.0 mg/kg/injection, schedule: Q01DX009 (ip), vehicle: Klucel (hydroxypropylcellulose) (HPC)
[13] = dose: 100.0 mg/kg/injection, schedule: Q01DX009 (ip), vehicle: Klucel (hydroxypropylcellulose) (HPC)
[14] = dose: 100.0 mg/kg/injection, schedule: Q04DX003 (ip), vehicle: Klucel (hydroxypropylcellulose) (HPC)
[15] = dose: 200.0 mg/kg/injection, schedule: Q01DX009 (ip), vehicle: Klucel (hydroxypropylcellulose) (HPC)
[16] = dose: 200.0 mg/kg/injection, schedule: Q04DX003 (ip), vehicle: Klucel (hydroxypropylcellulose) (HPC)
[17] = dose: 400.0 mg/kg/injection, schedule: Q01DX009 (ip), vehicle: Klucel (hydroxypropylcellulose) (HPC)
[18] = dose: 400.0 mg/kg/injection, schedule: Q04DX003 (ip), vehicle: Klucel (hydroxypropylcellulose) (HPC)
[19] = dose: 100.0 mg/kg/injection, schedule: Q01DX001 (ip), vehicle: saline
[20] = dose: 200.0 mg/kg/injection, schedule: Q01DX001 (ip), vehicle: saline

Measured: T/C

Cc1nc(Br)c2cnccn12
inactive: dose: 12.5 mg/kg/injection, schedule: Q01DX009 (ip), vehicle: saline 106 % of control | dose: 12.5 mg/kg/injection, schedule: Q04DX003 (ip), vehicle: saline 98 % of control | dose: 25.0 mg/kg/injection, schedule: Q01DX009 (ip), vehicle: saline 103 % of control | dose: 25.0 mg/kg/injection, schedule: Q04DX003 (ip), vehicle: saline 97 % of control | dose: 50.0 mg/kg/injection, schedule: Q04DX003 (ip), vehicle: saline 97 % of control

CN(C)C1c2cc(Br)ccc2-c2ccc([N+](=O)[O-])cc21 (stereo not drawn)
inactive: [1] 94 % of control | [2] 103 % of control | [3] 100 % of control

CCCC(C)OS(=O)(=O)c1ccc(C)cc1 (stereo not drawn)
inactive: dose: 100.0 mg/kg/injection, schedule: Q01DX009 (ip), vehicle: saline 104 % of control | dose: 100.0 mg/kg/injection, schedule: Q04DX002 (ip), vehicle: saline with Tween-80 97 % of control | dose: 200.0 mg/kg/injection, schedule: Q01DX009 (ip), vehicle: saline 96 % of control | dose: 200.0 mg/kg/injection, schedule: Q04DX002 (ip), vehicle: saline with Tween-80 93 % of control | dose: 400.0 mg/kg/injection, schedule: Q01DX009 (ip), vehicle: saline 102 % of control | dose: 400.0 mg/kg/injection, schedule: Q04DX002 (ip), vehicle: saline with Tween-80 97 % of control

N#CC(Nc1ccccc1)c1ccc(Cl)cc1 (stereo not drawn)
inactive: dose: 50.0 mg/kg/injection, schedule: Q01DX009 (ip), vehicle: saline with Tween-80 101 % of control | [4] 97 % of control | [5] 94 % of control

COc1cc(/C=C2\CCNC2=O)ccc1OCc1ccccc1
inactive: dose: 50.0 mg/kg/injection, schedule: Q01DX001 (ip), vehicle: carboxymethylcellulose (CMC) 94 % of control | [1] 105 % of control | [2] 97 % of control | [3] 103 % of control

CN(C)CCC(C(=O)N(C)C)(c1ccccc1)c1ccccc1
inactive: dose: 75.0 mg/kg/injection, schedule: Q01DX001 (ip), vehicle: carboxymethylcellulose (CMC) 94 % of control | dose: 150.0 mg/kg/injection, schedule: Q01DX001 (ip), vehicle: carboxymethylcellulose (CMC) 97 % of control

CC(=O)Oc1c2ccccc2cc2c1ccc1ccccc12
inactive: [6] 119 % of control | dose: 200.0 mg/kg/injection, schedule: Q04DX002 (ip), vehicle: Klucel (hydroxypropylcellulose) (HPC) 100 % of control | dose: 400.0 mg/kg/injection, schedule: Q04DX002 (ip), vehicle: Klucel (hydroxypropylcellulose) (HPC) 106 % of control

O=C(NCO)NC1NC(=O)NC1=O (stereo not drawn)
inactive: [7] 101 % of control | [8] 101 % of control | [9] 108 % of control

Cc1cncc(=O)[nH]1
inactive: dose: 100.0 mg/kg/injection, schedule: Q01DX001 (ip), vehicle: saline with Tween-80 98 % of control | [4] 96 % of control | [7] 104 % of control | dose: 200.0 mg/kg/injection, schedule: Q01DX001 (ip), vehicle: saline with Tween-80 98 % of control | [5] 100 % of control | [8] 111 % of control | dose: 400.0 mg/kg/injection, schedule: Q01DX001 (ip), vehicle: saline with Tween-80 102 % of control | dose: 400.0 mg/kg/injection, schedule: Q01DX009 (ip), vehicle: saline with Tween-80 91 % of control | [9] 98 % of control

O=C(Nc1cc([N+](=O)[O-])ccc1Cl)N(Cc1ccccc1)c1ccccc1
inactive: [10] 94 % of control and 95 % of control | [11] 94 % of control and 97 % of control | [12] 89 % of control

O=C(O)C(O)(C1CCCCC1)C1CCC2CCC3CCCC1C32 (stereo not drawn)
inactive: [4] 87 % of control

CCOc1ccccc1NC(=S)NC(=O)c1ccc(OC)cc1
inactive: [13] 104 % of control | [14] 109 % of control | [15] 93 % of control | [16] 102 % of control | [17] 93 % of control | [18] 100 % of control

ClCC1=NCCCN1
inactive: dose: 3.13 mg/kg/injection, schedule: Q01DX009 (ip), vehicle: Klucel (hydroxypropylcellulose) (HPC) 93 % of control | dose: 6.25 mg/kg/injection, schedule: Q01DX009 (ip), vehicle: Klucel (hydroxypropylcellulose) (HPC) 97 % of control | [10] 97 % of control | dose: 12.5 mg/kg/injection, schedule: Q04DX002 (ip), vehicle: Klucel (hydroxypropylcellulose) (HPC) 97 % of control | [11] 97 % of control | dose: 25.0 mg/kg/injection, schedule: Q04DX002 (ip), vehicle: Klucel (hydroxypropylcellulose) (HPC) 104 % of control | [12] 97 % of control | dose: 50.0 mg/kg/injection, schedule: Q04DX002 (ip), vehicle: Klucel (hydroxypropylcellulose) (HPC) 104 % of control | [6] 98 % of control

C=CCNC(=O)C[n+]1cccc(C(=O)NC)c1
inactive: [19] 106 % of control | [20] 103 % of control | dose: 400.0 mg/kg/injection, schedule: Q01DX001 (ip), vehicle: saline 97 % of control

COc1ccc2c3c1OC1C(C)(O)C(O)CC4C(C2)N(C)CCC341 (stereo not drawn)
inactive: dose: 75.0 mg/kg/injection, schedule: Q01DX001 (ip), vehicle: saline 98 % of control | dose: 150.0 mg/kg/injection, schedule: Q01DX001 (ip), vehicle: saline 104 % of control | dose: 300.0 mg/kg/injection, schedule: Q01DX001 (ip), vehicle: saline 98 % of control

COC(=O)c1ccccc1NN=Nc1ccccc1[N+](=O)[O-]
inactive: [13] 93 % of control | [14] 97 % of control and 86 % of control | [15] 88 % of control | [16] 98 % of control and 89 % of control | [17] 97 % of control | [18] 95 % of control and 97 % of control

CCCCCCCCCCCCCCCCSc1ccc2ccccc2c1
inactive: [14] 100 % of control | [16] 96 % of control | [18] 87 % of control

O[C@@H]1CCC[C@H]1n1cnc2c(=S)nc[nH]c21
inactive: dose: 89.0 mg/kg/injection, schedule: Q04DX003 (ip), vehicle: saline with Tween-80 104 % of control | dose: 133.0 mg/kg/injection, schedule: Q04DX003 (ip), vehicle: saline with Tween-80 112 % of control

O=C(CCCC(=O)NNC(=O)Nc1cccc2ccccc12)NNC(=O)Nc1cccc2ccccc12
inactive: dose: 50.0 mg/kg/injection, schedule: Q01DX001 (ip), vehicle: saline 98 % of control | [19] 96 % of control | [20] 87 % of control

Cc1cc(Cl)c(C)cc1Cl
inactive: dose: 100.0 mg/kg/injection, schedule: Q01DX009 (ip), vehicle: saline sonified 107 % of control | dose: 100.0 mg/kg/injection, schedule: Q04DX003 (ip), vehicle: saline sonified 100 % of control | dose: 200.0 mg/kg/injection, schedule: Q01DX009 (ip), vehicle: saline sonified 110 % of control | dose: 200.0 mg/kg/injection, schedule: Q04DX003 (ip), vehicle: saline sonified 101 % of control | dose: 400.0 mg/kg/injection, schedule: Q01DX009 (ip), vehicle: saline sonified 102 % of control | dose: 400.0 mg/kg/injection, schedule: Q04DX003 (ip), vehicle: saline sonified 94 % of control

Source: PubChem BioAssay AID248 (DTP/NCI, 2004)
